# Results as given in the supplement of paper PMC10307832.
# Assays:
# Test in all cases: relative viability (nuclei count vs DMSO), 5 days (fraction); higher = more cells survive
# RU-SKI 43 + Tozasertib = compound: CC[C@@H](C)CNCC(=O)N1CCC2=C([C@@H]1COC3=CC=CC(=C3)C)C=CS2 [RU-SKI 43] + Cc1cc(Nc2cc(N3CCN(C)CC3)nc(Sc3ccc(NC(=O)C4CC4)cc3)n2)n[nH]1 [Tozasertib] (partner 0.1 µM)
# Summary of the method: (§1)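 Nuclei were stained with Hoechst during a one-step fixation (final 0.05% Triton X-100, 1% formaldehyde, 1 ug/ml Hoechst) carried out 5 days after dosing, then counted on 4× images. The cells, lung cancer lines in 1536-well plates, had been dosed by pin tool the day after seeding with one drug alone or a fixed anchor-drug dose plus five library-drug doses (not always all listed) in √10 steps. Relative viability is the nuclei count in treated wells divided by that in vehicle wells, and each value is the median of duplicate plates.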
# MK-8033 + Pictilisib = compound: Cn1cc(-c2cnc3ccc4ccc(CS(=O)(=O)NCc5ccccn5)cc4c(=O)c3c2)cn1 [MK-8033] + CS(=O)(=O)N1CCN(Cc2cc3nc(-c4cccc5[nH]ncc45)nc(N4CCOCC4)c3s2)CC1 [Pictilisib] (partner 1 µM)
# Summary of the method: as §1
# MK-8033 + Olaparib = compound: Cn1cc(-c2cnc3ccc4ccc(CS(=O)(=O)NCc5ccccn5)cc4c(=O)c3c2)cn1 [MK-8033] + O=C(c1cc(Cc2n[nH]c(=O)c3ccccc23)ccc1F)N1CCN(C(=O)C2CC2)CC1 [Olaparib] (partner 8 µM)
# Summary of the method: as §1
# MK-8033 + Bortezomib = compound: Cn1cc(-c2cnc3ccc4ccc(CS(=O)(=O)NCc5ccccn5)cc4c(=O)c3c2)cn1 [MK-8033] + CC(C)C[C@H](NC(=O)[C@H](Cc1ccccc1)NC(=O)c1cnccn1)B(O)O [Bortezomib] (partner 0.002 µM)
# Summary of the method: as §1
Cell Line,relative viability (RU-SKI 43 + Tozasertib; first compound 0.1 µM),relative viability (RU-SKI 43 + Tozasertib; first compound 0.3162 µM),relative viability (RU-SKI 43 + Tozasertib; first compound 1 µM),relative viability (RU-SKI 43 + Tozasertib; first compound 3.162 µM),relative viability (RU-SKI 43 + Tozasertib; first compound 10 µM),relative viability (MK-8033 + Pictilisib; first compound 0.02 µM),relative viability (MK-8033 + Pictilisib; first compound 0.06325 µM),relative viability (MK-8033 + Pictilisib; first compound 0.2 µM),relative viability (MK-8033 + Pictilisib; first compound 0.6325 µM),relative viability (MK-8033 + Pictilisib; first compound 2 µM),relative viability (MK-8033 + Olaparib; first compound 0.02 µM),relative viability (MK-8033 + Olaparib; first compound 0.06325 µM),relative viability (MK-8033 + Olaparib; first compound 0.2 µM),relative viability (MK-8033 + Olaparib; first compound 0.6325 µM),relative viability (MK-8033 + Olaparib; first compound 2 µM),relative viability (MK-8033 + Bortezomib; first compound 0.02 µM),relative viability (MK-8033 + Bortezomib; first compound 0.06325 µM),relative viability (MK-8033 + Bortezomib; first compound 0.2 µM),relative viability (MK-8033 + Bortezomib; first compound 0.6325 µM),relative viability (MK-8033 + Bortezomib; first compound 2 µM)
201T,0.883,1.03,0.883,0.931,0.812,0.684,0.579,0.657,0.654,0.697,0.873,0.824,0.832,0.82,0.822,1.13,1.09,1.08,1.07,1.12
NCI-H1915,0.435,0.516,0.38,0.469,0.4,0.969,0.785,0.914,1,0.861,0.243,0.241,0.267,0.252,0.259,1,0.911,0.975,1.03,0.952
NCI-H2347,0.448,0.449,0.523,0.535,0.501,0.685,0.438,0.597,0.771,0.603,0.564,0.573,0.535,0.617,0.575,1.1,0.999,0.846,1.03,1.08
H3255,0.721,0.726,0.292,0.76,0.489,0.558,0.299,0.48,0.577,0.441,0.567,0.504,0.561,0.57,0.537,0.846,0.585,0.822,0.825,0.705
NCI-H2009,0.725,0.896,0.727,0.64,0.504,0.833,0.716,0.732,0.775,0.771,0.716,0.683,0.632,0.712,0.707,1.03,1.09,0.954,0.95,0.984
NCI-H460,0.545,0.4,0.544,0.504,0.274,0.432,0.285,0.395,0.253,0.402,0.419,0.462,0.36,0.498,0.413,0.908,1.08,1.06,1.28,1.17
COR-L 105,0.317,0.252,0.32,0.339,0.332,0.413,0.357,0.366,0.424,0.403,0.846,0.673,0.7,0.637,0.701,0.852,0.735,0.79,0.945,0.93
BEN,0.502,0.426,0.546,0.495,0.509,0.583,0.454,0.499,0.594,0.541,1.13,1.01,0.986,0.985,1.01,0.937,0.751,0.578,0.631,0.807
NCI-H1993,0.566,0.569,0.585,0.588,0.564,0.842,0.75,0.669,1,0.763,0.996,1.01,0.705,0.946,0.669,0.498,0.804,0.794,0.816,0.853
NCI-H838,0.243,0.242,0.273,0.258,0.254,0.462,0.447,0.425,0.423,0.394,0.783,0.727,0.707,0.753,0.716,0.794,0.721,0.87,0.79,0.706
NCI-H1755,0.622,0.651,0.602,0.571,0.496,0.413,0.399,0.368,0.405,0.481,0.899,0.916,0.863,0.846,0.735,0.987,0.834,0.933,0.849,0.835
NCI-H1666,0.495,0.596,0.571,0.525,0.435,0.365,0.31,0.459,0.422,0.481,0.755,0.683,0.659,0.82,0.774,0.766,0.722,0.886,0.822,0.806
NCI-H2085,0.716,0.71,0.854,0.743,0.671,0.417,0.369,0.532,0.57,0.395,0.771,0.788,0.766,0.794,0.73,0.956,0.941,0.98,1.08,0.963
COR-L23,0.18,0.179,0.188,0.164,0.176,0.8,0.731,0.697,0.876,0.823,0.348,0.328,0.378,0.367,0.311,0.966,0.797,0.868,0.971,1.02
NCI-H647,0.262,0.261,0.227,0.231,0.262,0.444,0.421,0.398,0.41,0.471,0.7,0.476,0.479,0.661,0.515,0.874,0.819,1.04,0.934,0.871
LCLC-97TM1,0.26,0.22,0.207,0.21,0.231,0.187,0.148,0.199,0.215,0.19,0.346,0.387,,0.406,0.256,1.14,0.616,0.597,0.654,0.499
